Measured values: patent publication US12692233B2, “Anthelmintic compounds comprising a pyridine structure” (Intervet Inc., priority 2020, dated 2026)

Assays:
Ascaridia galli = assay: In vitro assay Ascaridia galli larval stage 3; format: cell-based; conditions: larval stage 3, 20 larvae per well, microscopic examination, read-out: MEC (minimum effective concentration) against Ascaridia galli L3
Text: (§1) […] galli (intestinal roundworm of chicken), larval stage 3 (“L3”); and Oesophagostumum dentatum (nodular worm of swine), larval stages 3 and 4 (respectively “L3” and “L4”) where suspended in a nutrient medium and distributed to 96 well plates with 20 larvae per well. The wells were spiked DMSO solutions of the compounds with declining concentration.

Dirofilaria immitis = assay: In vitro assay Dirofilaria immitis L1 (microfilaria), motility; format: cell-based; conditions: 72 h, 3 days incubation, reduction in motility vs DMSO
Experimental: (§2) Approximately 500 D. immitis microfilaria were added to a microtiter plate containing a nutrient medium and the test compound in DMSO at varying concentrations. After incubation for 3 days, activity was evaluated as reduction in motility as compared to DMSO as negative control. Compounds were tested in duplicates. Based on the concentration response curves EC50 values were calculated.

[1] = target: T1, human Maxi K channel (BK channel) (Homo sapiens, UniProt Q12791); assay: Agonistic activity at the human Maxi K channel (BK channel), FLIPR membrane potential in CHO K1 cells; format: cell-based; conditions: CHO K1 cells stably transfected with KCNMA1 and beta1 (KCNMB1) subunits, membrane potential dye
T1 construct: expressed in transfected cells; host or cells: CHO K1
Text: A CHO K1 cell line was stably transfected with the KCNMA1 (KCa1.1, U11058) and beta1 (KCNMB1) subunits of the human Maxi K channel (Ponte et al, Molecular Pharmacology 2012, 81(4), 567-577).
The complete measurement takes 150 s.

Haemonchus contortus = assay: In vitro assay Haemonchus contortus, motility of exsheathed L3 larvae; format: cell-based; conditions: 168 h, 7 days incubation, motility reduced by 50% with respect to positive control ivermectin, read-out: ED50 against Haemonchus contortus
Experimental: Solutions of compounds with declining concentrations in DMSO were prepared, diluted with nutrient medium and distributed to 96 well microtiterplates. […]3 larvae of Haemonchus contortus were incubated for 20 min at 37° C. in a water bath, separated by centrifugation and added to the wells with 300 Larvae/well. After incubation for 7 days motility was assessed by automated microscopy. Ivermectin was used as positive control, DMSO as negative control and ED50 values were calculated which represent the concentration for an individual compound that reduces motility by 50% with respect to the […].

C. elegans Slo-1a = C. elegans Slo-1a (Caenorhabditis elegans, UniProt Q95V25); assay: Agonistic activity at C. elegans Slo-1a, FLIPR membrane potential in CHO K1 cells; conditions: EC50 agonistic activity at C. elegans Slo-1a, CHO K1 cells stably transfected with slo-1a, membrane potential dye
Experimental: A CHO K1 cell line stably transfected with the Caenorhabditis elegans slo-1a (accession no Y51A2D.19a) was established. Cells were seeded in microtiter plates (black 384-well MTP, clear bottom) in a concentration of 10,000 cells/well in 25 μl medium and cultured for 20 to 24 hours at 37° C. and 5% CO2. After incubation, 25 μl of FMP-dye Blue-Tyrode's was added to each well and incubated at room temperature for 30 min. Ten minutes after addition of 12.5 μl compound solution, the plates are transferred to the FLIPR for measurement.
For the membrane potential measurements, the plates were placed in the FLIPR Penta (Molecular Devices). The baseline measurement of the fluorescence was stared for 20 sec (Exc. 510-545 nm, Emm. 565-625 nm). Potential channel opening measurement was started by addition of 25 μl of KCl-Tyrode (final assay concentration of the KCl-Tyrode: 70 mM KCl, 2 mM CaCl2, 1 mM MgCl2, 0.8 mM NaH2PO4, 5 mM Glucose, 28 mM Hepes, pH 7.4, including the voltage sensitive dye). The complete measurement takes 150 s.
EC50 values were determined in triplicate utilizing compound dilution series. The data were determined at least in two independent tests. The data were proceeded by using the ActivityBase XE Runner software (IDBS) for curve fitting and calculation of the half-maximal effective concentration.

Oesophagostumum dentatum [2] = assay: In vitro assay Oesophagostumum dentatum larval stage 4; format: cell-based; conditions: larval stage 4, 20 larvae per well, microscopic examination; read-out: MEC (minimum effective concentration) against Oesophagostumum dentatum L4
Text: as §1

Oesophagostumum dentatum [3] = assay: In vitro assay Oesophagostumum dentatum larval stage 3; format: cell-based; conditions: larval stage 3, 20 larvae per well, microscopic examination; read-out: MEC (minimum effective concentration) against Oesophagostumum dentatum L3
Text: as §1

Acanthocheilonema viteae = assay: In vitro assay Acanthocheilonema viteae L1 (microfilaria), motility; format: cell-based; conditions: 72 h, 3 days incubation, reduction in motility vs DMSO
Experimental: as §2, with “A. viteae” for “D. immitis”

Sequence of C. elegans Slo-1a (Q95V25 whole entry): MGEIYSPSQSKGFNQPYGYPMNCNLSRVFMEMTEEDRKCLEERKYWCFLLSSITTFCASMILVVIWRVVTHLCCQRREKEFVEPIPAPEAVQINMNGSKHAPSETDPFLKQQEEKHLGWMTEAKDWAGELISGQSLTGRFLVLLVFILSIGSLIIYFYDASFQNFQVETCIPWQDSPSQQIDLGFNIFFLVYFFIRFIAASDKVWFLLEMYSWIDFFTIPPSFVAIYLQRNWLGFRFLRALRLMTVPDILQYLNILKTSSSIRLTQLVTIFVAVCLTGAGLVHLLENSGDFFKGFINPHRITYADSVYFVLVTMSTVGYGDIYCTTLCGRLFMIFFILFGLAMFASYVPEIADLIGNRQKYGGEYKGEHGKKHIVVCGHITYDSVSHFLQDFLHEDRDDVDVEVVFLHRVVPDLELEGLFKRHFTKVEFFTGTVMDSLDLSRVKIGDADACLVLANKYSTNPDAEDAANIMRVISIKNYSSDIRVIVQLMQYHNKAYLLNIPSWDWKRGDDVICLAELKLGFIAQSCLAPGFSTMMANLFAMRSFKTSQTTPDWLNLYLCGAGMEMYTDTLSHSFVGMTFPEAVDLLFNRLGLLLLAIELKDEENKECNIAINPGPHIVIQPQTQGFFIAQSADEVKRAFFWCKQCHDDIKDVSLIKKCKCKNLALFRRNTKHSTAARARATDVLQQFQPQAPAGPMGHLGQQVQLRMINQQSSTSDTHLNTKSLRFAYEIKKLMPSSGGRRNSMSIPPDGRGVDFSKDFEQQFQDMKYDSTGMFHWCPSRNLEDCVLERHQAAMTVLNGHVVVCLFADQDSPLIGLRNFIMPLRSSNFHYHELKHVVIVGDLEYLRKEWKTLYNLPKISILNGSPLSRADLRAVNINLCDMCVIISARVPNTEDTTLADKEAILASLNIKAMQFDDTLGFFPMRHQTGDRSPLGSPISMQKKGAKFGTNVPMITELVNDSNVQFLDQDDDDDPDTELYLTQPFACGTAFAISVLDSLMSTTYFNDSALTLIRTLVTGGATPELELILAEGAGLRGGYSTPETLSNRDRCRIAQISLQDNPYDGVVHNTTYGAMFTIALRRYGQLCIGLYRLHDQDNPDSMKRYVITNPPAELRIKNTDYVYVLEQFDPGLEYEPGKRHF
T1 sequence (Q12791 1-1178 isoform Q12791-5): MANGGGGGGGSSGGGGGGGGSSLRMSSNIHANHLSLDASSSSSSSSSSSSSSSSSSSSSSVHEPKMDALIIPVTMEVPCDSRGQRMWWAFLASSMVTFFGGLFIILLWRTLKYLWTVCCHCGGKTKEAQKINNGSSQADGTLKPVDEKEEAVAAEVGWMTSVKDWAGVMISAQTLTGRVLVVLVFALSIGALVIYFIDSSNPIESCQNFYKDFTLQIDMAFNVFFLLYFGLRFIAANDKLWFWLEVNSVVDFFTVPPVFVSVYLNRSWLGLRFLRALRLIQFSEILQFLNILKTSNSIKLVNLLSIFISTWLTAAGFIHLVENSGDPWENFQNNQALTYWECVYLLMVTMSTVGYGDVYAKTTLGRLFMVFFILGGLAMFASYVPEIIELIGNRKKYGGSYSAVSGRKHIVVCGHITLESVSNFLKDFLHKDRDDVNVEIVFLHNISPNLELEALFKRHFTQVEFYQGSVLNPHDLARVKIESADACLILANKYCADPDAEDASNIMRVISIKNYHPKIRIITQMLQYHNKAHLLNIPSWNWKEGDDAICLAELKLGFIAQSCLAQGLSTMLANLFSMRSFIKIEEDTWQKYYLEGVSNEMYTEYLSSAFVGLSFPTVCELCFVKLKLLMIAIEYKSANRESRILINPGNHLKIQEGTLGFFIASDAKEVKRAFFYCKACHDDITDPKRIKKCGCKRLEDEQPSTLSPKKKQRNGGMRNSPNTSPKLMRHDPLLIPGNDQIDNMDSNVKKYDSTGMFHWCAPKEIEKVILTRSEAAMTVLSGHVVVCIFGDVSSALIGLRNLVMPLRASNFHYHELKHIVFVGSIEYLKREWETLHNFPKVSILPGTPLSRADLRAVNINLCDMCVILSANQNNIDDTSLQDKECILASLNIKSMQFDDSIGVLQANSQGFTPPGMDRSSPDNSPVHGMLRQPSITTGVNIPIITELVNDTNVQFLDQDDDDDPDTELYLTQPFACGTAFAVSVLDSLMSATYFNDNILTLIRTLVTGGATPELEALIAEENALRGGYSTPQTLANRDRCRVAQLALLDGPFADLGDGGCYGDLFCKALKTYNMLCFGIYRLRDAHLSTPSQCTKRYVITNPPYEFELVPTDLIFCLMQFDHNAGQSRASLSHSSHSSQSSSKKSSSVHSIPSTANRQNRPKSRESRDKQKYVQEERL
T1 sequence (Q16558 whole entry partner): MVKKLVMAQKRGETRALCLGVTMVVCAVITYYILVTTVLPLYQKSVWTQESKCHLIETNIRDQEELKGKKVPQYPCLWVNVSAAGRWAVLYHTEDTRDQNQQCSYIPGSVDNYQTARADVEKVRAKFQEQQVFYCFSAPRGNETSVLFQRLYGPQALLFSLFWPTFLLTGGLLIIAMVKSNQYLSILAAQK

Structure (SMILES)	minimal effective concentration (Ascaridia galli)	EC50 (Dirofilaria immitis)	EC50 [1]	EC50 (Haemonchus contortus)	EC50 (C. elegans Slo-1a)	minimal effective concentration (Oesophagostumum dentatum [2])	minimal effective concentration (Oesophagostumum dentatum [3])	EC50 (Acanthocheilonema viteae)
CN(C)c1cc(Sc2cc(Cl)cc(Cl)c2)ncc1C(=O)N[C@@H]1CCOc2ccccc21 [Compound 18]	≤ 50 µM	< 10 µM	> 30 µM	< 50 µM	–	–	–	–
O=C(N[C@H]1CCCc2ccccc21)c1cnc(Sc2cccc(Cl)c2Cl)cc1N1CCOCC1 [Compound 21]	–	–	> 30 µM	< 50 µM	< 1 µM	–	–	–
O=C(N[C@H]1CCc2ccccc21)c1cnc(Sc2cccc(Cl)c2Cl)cc1N1CCOCC1 [Compound 23]	≤ 50 µM	< 10 µM	> 30 µM	–	< 1 µM	–	–	–
O=C(N[C@@H]1CCOc2ccccc21)c1cnc(Oc2cc(Cl)cc(Cl)c2)cc1N1CCOCC1 [Compound 24]	–	< 10 µM	> 30 µM	–	–	≤ 50 µM	≤ 50 µM	–
CN(C)c1cc(Oc2cc(Cl)cc(Cl)c2)ncc1C(=O)N[C@@H]1CCOc2ccccc21 [Compound 29]	≤ 50 µM	< 10 µM	> 30 µM	–	–	≤ 50 µM	–	–
CN(C)c1cc(Oc2cc(Cl)cc(Cl)c2)ncc1C(=O)Nc1cccc2ccccc12 [Compound 32]	–	< 10 µM	> 30 µM	–	–	–	≤ 50 µM	–
CN(C)c1cc(Oc2cccc(Cl)c2Cl)ncc1C(=O)N[C@H]1CCCc2ccccc21 [Compound 34]	–	–	> 30 µM	< 50 µM	< 1 µM	–	–	–
CN(C)c1cc(Oc2cccc(Cl)c2Cl)ncc1C(=O)N[C@H]1CCc2ccccc21 [Compound 35]	–	–	> 30 µM	< 50 µM	< 1 µM	–	–	–
CN(C)c1cc(Oc2cccc(Cl)c2Cl)ncc1C(=O)Nc1cccc2ccccc12 [Compound 36]	–	< 10 µM	> 30 µM	–	–	≤ 50 µM	≤ 50 µM	< 10 µM
CN(C)c1cc(Oc2cccc(Cl)c2Cl)ncc1C(=O)Nc1csc2ccccc12 [Compound 37]	≤ 50 µM	–	> 30 µM	–	–	≤ 50 µM	–	< 10 µM
CN(C)c1cc(Sc2cccc(Cl)c2Cl)ncc1C(=O)N[C@@H]1CCOc2ccccc21 [Compound 39]	–	< 10 µM	> 30 µM	–	–	–	≤ 50 µM	< 10 µM
O=C(Nc1cccc2ccccc12)c1cnc(Oc2cccc(Cl)c2Cl)cc1N1CCOCC1 [Compound 45]	–	< 10 µM	> 30 µM	–	–	–	–	–
O=C(Nc1csc2ccccc12)c1cnc(Oc2cccc(Cl)c2Cl)cc1N1CCOCC1 [Compound 46]	–	< 10 µM	> 30 µM	–	–	–	–	< 10 µM
O=C(N[C@@H]1CCOc2ccccc21)c1cnc(Sc2cccc(Cl)c2Cl)cc1N1CCOCC1 [Compound 50]	–	< 10 µM	> 30 µM	–	–	–	–	–
CSc1cc(Sc2cccc(Cl)c2Cl)ncc1C(=O)N[C@H]1CCOc2ccccc21 [Compound 52]	≤ 50 µM	–	> 30 µM	< 50 µM	< 10 µM	–	≤ 50 µM	–
CSc1cc(Sc2cc(Cl)cc(Cl)c2)ncc1C(=O)N[C@@H]1CCOc2ccccc21 [Compound 55]	–	–	> 30 µM	< 50 µM	–	–	–	–

Structure (SMILES)	minimal effective concentration (Ascaridia galli)	EC50 (Dirofilaria immitis)	EC50 [1]	EC50 (Haemonchus contortus)	EC50 (C. elegans Slo-1a)	minimal effective concentration (Oesophagostumum dentatum [2])	minimal effective concentration (Oesophagostumum dentatum [3])	EC50 (Acanthocheilonema viteae)
CSc1cc(Oc2cccc(Cl)c2Cl)ncc1C(=O)N[C@H]1CCOc2ccccc21 [Compound 57]	≤ 50 µM	–	> 30 µM	–	–	–	–	< 10 µM
COc1cc(Sc2cccc(Cl)c2Cl)ncc1C(=O)N[C@H]1CCc2ccccc21 [Compound 67]	≤ 50 µM	–	> 30 µM	–	< 10 µM	≤ 50 µM	–	< 10 µM
CCOc1cc(Sc2cccc(Cl)c2Cl)ncc1C(=O)N[C@H]1CCc2ccccc21 [Compound 72]	≤ 50 µM	< 10 µM	> 30 µM	< 50 µM	< 10 µM	–	–	< 10 µM
CCSc1cc(Sc2cc(Cl)cc(Cl)c2)ncc1C(=O)N[C@H]1CCc2ccccc21 [Compound 73]	–	–	> 30 µM	< 50 µM	–	–	≤ 50 µM	–
COc1cc(Sc2cc(Cl)cc(Cl)c2)ncc1C(=O)N[C@H]1CCCc2ccccc21 [Compound 82]	–	< 10 µM	> 30 µM	< 50 µM	< 10 µM	≤ 50 µM	–	< 10 µM
COc1cc(Sc2cc(Cl)cc(Cl)c2)ncc1C(=O)N[C@H]1CCc2ccccc21 [Compound 84]	–	–	> 30 µM	–	< 10 µM	≤ 50 µM	≤ 50 µM	< 10 µM
COc1cc(Oc2cc(Cl)cc(Cl)c2)ncc1C(=O)N[C@H]1CCCc2ccccc21 [Compound 85]	≤ 50 µM	< 10 µM	> 30 µM	–	–	–	≤ 50 µM	–
CCOc1cc(Oc2cc(Cl)cc(Cl)c2)ncc1C(=O)N[C@H]1CCc2ccccc21 [Compound 90]	≤ 50 µM	–	> 30 µM	–	–	–	≤ 50 µM	< 10 µM
COc1cc(Oc2cccc(Cl)c2Cl)ncc1C(=O)N[C@H]1CCc2ccccc21 [Compound 94]	–	< 10 µM	> 30 µM	–	–	–	–	< 10 µM
COc1cc(Oc2cccc(Cl)c2Cl)ncc1C(=O)N[C@H]1CCOc2ccccc21 [Compound 95]	≤ 50 µM	< 10 µM	> 30 µM	–	–	–	–	< 10 µM
COc1cc(Oc2cccc(Cl)c2Cl)ncc1C(=O)N[C@H]1CCCc2ccccc21 [Compound 96]	≤ 50 µM	< 10 µM	> 30 µM	–	–	–	–	–
CCOc1cc(Sc2cc(Cl)cc(Cl)c2)ncc1C(=O)N[C@H]1CCc2ccccc21 [Compound 97]	–	–	> 30 µM	–	–	–	–	< 10 µM
CN(C)c1cc([S+]([O-])c2cc(Cl)cc(Cl)c2)ncc1C(=O)N[C@H]1CCCc2ccccc21 (stereo partly drawn) [Compound 101]	–	< 10 µM	> 30 µM	–	–	–	≤ 50 µM	–
CN(C)c1cc(S(=O)(=O)c2cc(Cl)cc(Cl)c2)ncc1C(=O)N[C@H]1CCCc2ccccc21 [Compound 102, (S)-6-((3,5-dichlorophenyl)sulfonyl)-4-(dimethylamino)-N-(1,2,3,4-tetrahydronaphthalen-1-yl)nicotinamide]	–	< 10 µM	> 30 µM	–	–	≤ 50 µM	–	–
CN(C)c1cc([S+]([O-])c2cc(Cl)cc(Cl)c2)ncc1C(=O)N[C@H]1CCOc2ccccc21 (stereo partly drawn) [Compound 103]	≤ 50 µM	< 10 µM	> 30 µM	–	< 10 µM	≤ 50 µM	≤ 50 µM	–
CN(C)c1cc(Nc2cc(Cl)cc(Cl)c2)ncc1C(=O)N[C@H]1CCc2ccccc21 [Compound 116]	≤ 50 µM	–	> 30 µM	–	< 10 µM	≤ 50 µM	≤ 50 µM	–
